Patent publication US20200069644A1, “NOVEL USE OF A FORMYL PEPTIDE RECEPTOR 2/ LIPOXIN A4 RECEPTOR (FPR2/ALX) AGONIST FOR TREATMENT OF HEART FAILURE” (BRISTOL- MYERS SQUIBB COMPANY, priority 2017, published 2020)

Legend:
Human FPR2 = target: T1, Human FPR2 (Homo sapiens, UniProt P25090); assay: FPR2 cAMP assay (cAMP inhibition); type: cell-based
T1 construct: expressed in transfected cells; host or cells: CHO-A12
T1 sequence (P25090 1-351): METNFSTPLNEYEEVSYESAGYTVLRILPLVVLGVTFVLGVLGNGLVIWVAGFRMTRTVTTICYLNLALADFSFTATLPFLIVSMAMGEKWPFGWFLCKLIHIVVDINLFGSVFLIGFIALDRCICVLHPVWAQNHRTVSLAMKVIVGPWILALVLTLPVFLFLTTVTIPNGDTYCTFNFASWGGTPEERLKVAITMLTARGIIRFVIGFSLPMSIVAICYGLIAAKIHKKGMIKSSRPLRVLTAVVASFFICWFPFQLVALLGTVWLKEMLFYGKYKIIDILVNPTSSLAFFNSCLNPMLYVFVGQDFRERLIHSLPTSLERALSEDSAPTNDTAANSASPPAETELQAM
Experimental: (§1) A mixture of forskolin (5 μM final for FPR2 or 10 μM final for FPR1) and IBMX (200 μM final) were added to 384-well Proxiplates (Perkin-Elmer) pre-dotted with test compounds in DMSO (1% final) at final concentrations in the range of 0.1 nM to 10 μM. CHO overexpressing human FPR1 or human FPR2 receptors were cultured in F-12 (Ham's) medium supplemented with 10% qualified FBS, 250 μg/ml zeocin and 300 μg/ml hygromycin (Life Technologies). Reactions were initiated by adding 2,000 human FPR2 cells per well or 4,000 human FPR1 cells per well in Dulbecco's PBS (with calcium and magnesium) (Life Technologies) supplemented with 0.1% BSA (Perkin-Elmer). The reaction mixtures were incubated for 30 min at room temperature. The level of intracellular cAMP was determined using the HTRF HiRange cAMP assay reagent kit (Cisbio) according to manufacturer's instruction. Solutions of cryptate conjugated anti-cAMP and d2 flurorophore-labelled cAMP were made in a supplied lysis buffer separately. […] After a 1 h room temperature incubation, time-resolved fluorescence intensity was measured using the Envision (Perkin-Elmer) at 400 nm excitation and dual emission at 590 nm and 665 nm. […] The potency and activity of Compound 1 to inhibit cAMP production was then determined by fitting to a 4-parametric logistic equation from a plot of cAMP level versus compound concentrations. […]

Mouse FPR2 = target: T2, Mouse FPR2 (Mus musculus, UniProt O88536); assay: cAMP inhibition, mouse FPR2/CHO-A12; type: cell-based
T2 construct: expressed in transfected cells; host or cells: CHO-A12
T2 sequence (O88536 1-351): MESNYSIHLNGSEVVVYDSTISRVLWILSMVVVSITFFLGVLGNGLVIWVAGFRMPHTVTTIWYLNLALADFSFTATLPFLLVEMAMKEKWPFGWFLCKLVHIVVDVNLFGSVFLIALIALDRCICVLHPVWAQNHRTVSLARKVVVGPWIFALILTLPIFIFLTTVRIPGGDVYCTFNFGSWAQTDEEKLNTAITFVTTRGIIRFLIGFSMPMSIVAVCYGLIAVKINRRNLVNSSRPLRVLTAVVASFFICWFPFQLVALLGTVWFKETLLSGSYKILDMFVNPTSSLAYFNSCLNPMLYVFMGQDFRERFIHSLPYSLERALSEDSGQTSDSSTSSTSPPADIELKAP
Experimental: [Worded in the source for another species; this species is reported under the same test.] as §1

[1] = test system: myocardial infarction in mice; assay: Mouse model of permanent coronary artery occlusion, 28 days; type: in vivo
Experimental: Permanent coronary artery occlusion was carried out in mice using a ligature placed around the left anterior descending artery to induce myocardial infarction. Treatment with orally-administered Compound 1 (0.3 and 3 mg/kg; QD) or dosing solution without compound (QD, referred to as vehicle) was initiated 24 hours following myocardial infarction. Mice subjected to thoracotomy but not infarcted were included as surgical “sham” controls. Mice were evaluated 28 days following myocardial infarction to assess structure/function relationships. Hearts were removed from mice for histological processing to measure left ventricular dimensions, infarct areas and infarct collagen composition.
The effect of Compound 1 on left ventricle and infarct scar remodeling was evaluated in a mouse model of permanent coronary artery occlusion. MI was created by permanently ligating the left anterior descending artery with a surgical suture. Treatments (QD, PO) were initiated 24 hours after MI and were continued for 28 days. Treatments consisted of suspension vehicle and Compound 1 at 0.3 mg/kg and 3 mg/kg. A cohort of mice that were subjected to the procedure but were not infarcted were included as a “sham operated” surgical control group. At the end of 28 days of treatment, the hearts were removed for histological evaluation of left ventricle structure and scar structure.
This is a model of ischemic heart disease. Infarct size was measured within the left ventricle (LV) and reported as a percentage of the total left ventricle cross sectional area.

[2] = test system: myocardial infarction in mice; assay: Mouse permanent coronary artery occlusion, early infarct composition 3 days post MI; type: in vivo; settings: 3 mg/kg PO QD
Experimental: In order to understand early changes in the infarct extracellular matrix, collagen remodeling enzymes and their endogenous inhibitors, the effects of 3 mg/kg Compound 1 treatment on the myocardial infarct composition in mice were evaluated 3 days post myocardial infarction. Myocardial infarction was created by permanently ligating the left anterior descending artery with a surgical suture. Treatment (QD, PO; suspension vehicle or Compound 1 at 3 mg/kg) was initiated 24 hours after MI and were continued to 3 days post MI. On day 3, mice received a final dose of treatment and the hearts were removed 2 hours post treatment (i.e., 74 hours after MI) for histological analysis.

Structure (SMILES): COc1cc(F)c([C@@H]2CNC(=O)[C@H]2NC(=O)Nc2ccccc2)c(F)c1 [Compound 1, 1-((3S,4R)-4-(2,6-difluoro-4-methoxyphenyl)-2-oxopyrrolidin-3-yl)-3-phenylurea]
- selectivity for human FPR2 vs. FPR1 (Human FPR2; CHO cell lines, cAMP): 446 fold
- EC50 (Human FPR2; Human FPR2/CHO-A12): 2.8 nM
- selectivity for mouse FPR2 vs. FPR1 (Mouse FPR2; CHO cell lines, cAMP): 640 fold
- EC50 (Mouse FPR2; Mouse FPR2/CHO-A12): 0.6 nM
- infarct wall thickness, % of mean thickness of sham ([1]; 0.3 mg/kg PO QD, 28 days): 61%
- reduction of LV chamber area vs. vehicle ([1]; 0.3 mg/kg PO QD, 28 days): 26%
- infarct wall thickness, % of mean thickness of sham ([1]; 3 mg/kg PO QD, 28 days): 67%
- reduction of LV chamber area vs. vehicle ([1]; 3 mg/kg PO QD, 28 days (trend)): 24%
- reduction in LV anterior wall infarct size vs. vehicle ([1]; 3 mg/kg PO QD, 28 days, started 24 h after MI, P<0.01): 55%
- wall thickness difference vs. vehicle ([1]; higher dose (3 mg/kg) PO QD, 28 days, P<0.05): 59%
- MMP-2 in infarcted myocardium vs. vehicle [2]: trend towards less MMP-2
- TIMP-4 in infarcted tissue vs. vehicle [2]: No differences
- average infarct area vs. vehicle [2]: similar
- collagen content within the infarct, increase vs. vehicle ([2]; P<0.05): 1.7 fold
